From patent publication US9732093B2, “FLAP modulators” (JANSSEN PHARMACEUTICA NV, priority 2013, dated 2017)

molecular target: human FLAP (Homo sapiens (Human), UniProt P20292); assay: FLAP binding assay (HTRF format); conditions: human FLAP wild type membranes, HTRF format; Table 6 (additional runs)
Experimental: The ability of the compounds of the present invention to treat a FLAP-mediated disease and/or disorder, or associated symptoms or complications thereof, was determined using the following procedures. Binding assay data represent the average value obtained from two different assay plates, with samples run in duplicate on each plate. Human whole blood assay data represent a single replicate on an assay plate using whole blood from at least one healthy donor.
Data are expressed as a HTRF ratio.

Sequence of human FLAP (P20292 whole entry): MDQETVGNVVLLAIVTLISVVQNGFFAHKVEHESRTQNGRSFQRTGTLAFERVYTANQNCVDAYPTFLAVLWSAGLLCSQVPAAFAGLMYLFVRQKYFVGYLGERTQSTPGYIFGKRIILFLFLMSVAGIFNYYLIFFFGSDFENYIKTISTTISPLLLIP

Compound	Ki
Nc1cnc(-c2ccc(C3CCC3)c(Oc3nccc(-c4cccs4)n3)c2F)cn1 [Example 91, 5-{4-Cyclobutyl-2-fluoro-3-[(4-thiophen-2-ylpyrimidin-2-yl)oxy]phenyl}pyrazin-2-amine]	0.8 nM
COc1ccnc(Oc2c(C3CCC3)ccc(-c3cnc(N)cn3)c2F)n1 [Example 93, 5-{4-Cyclobutyl-2-fluoro-3-[(4-methoxypyrimidin-2-yl)oxy]phenyl}pyrazin-2-amine]	5.2 nM
COc1cnc(Oc2c(C3CCC3)ccc(-c3cnc(N)cn3)c2F)nc1 [Example 94, 5-{4-Cyclobutyl-2-fluoro-3-[(5-methoxypyrimidin-2-yl)oxy]phenyl}pyrazin-2-amine]	44.5 nM
CS(=O)(=O)c1ccnc(Oc2c(C3CCC3)ccc(-c3cnc(N)cn3)c2F)n1 [Example 95, 5-(4-Cyclobutyl-2-fluoro-3-{[4-(methylsulfonyl)pyrimidin-2-yl]oxy}phenyl)pyrazin-2-amine]	4.7 nM
COc1cc(Oc2c(C3CCC3)ccc(-c3cnc(N)cn3)c2F)nc(N)n1 [Example 99, 4-[3-(5-Aminopyrazin-2-yl)-6-cyclobutyl-2-fluorophenoxy]-6-methoxypyrimidin-2-amine]	5.5 nM
COc1nc(N)cc(Oc2c(C3CCC3)ccc(-c3cnc(N)cn3)c2F)n1 [Example 100, 6-[3-(5-Aminopyrazin-2-yl)-6-cyclobutyl-2-fluorophenoxy]-2-methoxypyrimidin-4-amine]	1.2 nM
Nc1cnc(-c2ccc(C3CCC3)c(Oc3cccc(C(F)(F)F)n3)c2F)cn1 [Example 102, 5-(4-Cyclobutyl-2-fluor-3-{[6-(trifluoromethyl)pyridin-2-yl]oxy}phenyl)pyrazin-2-amine]	1.8 nM
Nc1cnc(-c2ccc(C3CCC3)c(Oc3ncc(C(F)(F)F)cn3)c2F)cn1 [Example 104, 5-(4-Cyclobutyl-2-fluoro-3-{[5-(trifluoromethyl)pyrimidin-2-yl]oxy}phenyl)pyrazin-2-amine]	18.3 nM
Nc1cnc(-c2ccc(C3CCC3)c(Oc3cnc(C(F)(F)F)cn3)c2F)cn1 [Example 105, 5-(4-Cyclobutyl-2-fluoro-3-{[5-(trifluoromethyl)pyrazin-2-yl]oxy}phenyl)pyrazin-2-amine]	39.4 nM
Nc1cnc(-c2ccc(C3CCC3)c(Oc3ccc(C(F)(F)F)nn3)c2F)cn1 [Example 106, 5-(4-Cyclobutyl-2-fluoro-3-{[6-(trifluoromethyl)pyridazin-3-yl]oxy}phenyl)pyrazin-2-amine]	12.3 nM
COC(=O)c1ccc(Oc2c(C3CCC3)ccc(-c3cnc(N)cn3)c2F)nc1 [Example 107, Methyl 6-[3-(5-aminopyrazin-2-yl)-6-cyclobutyl-2-fluorophenoxy]pyridine-3-carboxylate]	5.4 nM
N#Cc1ccc(Oc2c(C3CCC3)ccc(-c3cnc(N)cn3)c2F)cn1 [Example 108, 5-[3-(5-Aminopyrazin-2-yl)-6-cyclobutyl-2-fluorophenoxy]pyridine-2-carbonitrile]	28.1 nM
N#Cc1cc(Oc2c(C3CCC3)ccc(-c3cnc(N)cn3)c2F)ccn1 [Example 109, 4-[3-(5-Aminopyrazin-2-yl)-6-cyclobutyl-2-fluorophenoxy]pyridine-2-carbonitrile]	11.2 nM
N#Cc1cccnc1Oc1c(C2CCC2)ccc(-c2cnc(N)cn2)c1F [Example 110, 2-[3-(5-Aminopyrazin-2-yl)-6-cyclobutyl-2-fluorophenoxy]pyridine-3-carbonitrile]	2.6 nM
N#Cc1cccc(Oc2c(C3CCC3)ccc(-c3cnc(N)cn3)c2F)n1 [Example 111, 6-[3-(5-Aminopyrazin-2-yl)-6-cyclobutyl-2-fluorophenoxy]pyridine-2-carbonitrile]	2.4 nM
N#Cc1ncccc1Oc1c(C2CCC2)ccc(-c2cnc(N)cn2)c1F [Example 112, 3-[3-(5-Aminopyrazin-2-yl)-6-cyclobutyl-2-fluorophenoxy]pyridine-2-carbonitrile]	13.6 nM
